In patent US8173689B2 (Novartis AG, priority 2006, dated 2012):
Like-named read-outs stand apart in the source and are kept apart here.

What was measured:
[1] = system: MNFS60 (murine AML cells); experiment: Cell viability assay in MCSF dependent MNFS60 cells (Cell Titer Glo); assay type: cell-based; settings: Mus musculus, tested at about 1 μM, read-out: M-NFS-60 CP percent inhibition
Procedure, shortened: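 EC50 values reflect MCSF-driven (10 ng/ml final) proliferation over 72 hrs at 37° C., read by CellTiter-Glo. Each condition was run in triplicate.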

[2] = target: T1, full-length human CSF-1R receptor (Homo sapiens, UniProt P07333); experiment: In vitro inhibition of CSF-1R receptor tyrosine phosphorylation in transfected HEK293H cells stimulated with MCSF; assay type: cell-based; settings: HEK293-H, tested at about 1 μM, read-out: pCSF1R percent inhibition
T1 construct: transfected with the full-length human CSF-1R receptor cloned in house; expressed in transfected cells; host or cells: HEK293H (Invitrogen Cat. #11631017)
T1 sequence (P07333 20-972): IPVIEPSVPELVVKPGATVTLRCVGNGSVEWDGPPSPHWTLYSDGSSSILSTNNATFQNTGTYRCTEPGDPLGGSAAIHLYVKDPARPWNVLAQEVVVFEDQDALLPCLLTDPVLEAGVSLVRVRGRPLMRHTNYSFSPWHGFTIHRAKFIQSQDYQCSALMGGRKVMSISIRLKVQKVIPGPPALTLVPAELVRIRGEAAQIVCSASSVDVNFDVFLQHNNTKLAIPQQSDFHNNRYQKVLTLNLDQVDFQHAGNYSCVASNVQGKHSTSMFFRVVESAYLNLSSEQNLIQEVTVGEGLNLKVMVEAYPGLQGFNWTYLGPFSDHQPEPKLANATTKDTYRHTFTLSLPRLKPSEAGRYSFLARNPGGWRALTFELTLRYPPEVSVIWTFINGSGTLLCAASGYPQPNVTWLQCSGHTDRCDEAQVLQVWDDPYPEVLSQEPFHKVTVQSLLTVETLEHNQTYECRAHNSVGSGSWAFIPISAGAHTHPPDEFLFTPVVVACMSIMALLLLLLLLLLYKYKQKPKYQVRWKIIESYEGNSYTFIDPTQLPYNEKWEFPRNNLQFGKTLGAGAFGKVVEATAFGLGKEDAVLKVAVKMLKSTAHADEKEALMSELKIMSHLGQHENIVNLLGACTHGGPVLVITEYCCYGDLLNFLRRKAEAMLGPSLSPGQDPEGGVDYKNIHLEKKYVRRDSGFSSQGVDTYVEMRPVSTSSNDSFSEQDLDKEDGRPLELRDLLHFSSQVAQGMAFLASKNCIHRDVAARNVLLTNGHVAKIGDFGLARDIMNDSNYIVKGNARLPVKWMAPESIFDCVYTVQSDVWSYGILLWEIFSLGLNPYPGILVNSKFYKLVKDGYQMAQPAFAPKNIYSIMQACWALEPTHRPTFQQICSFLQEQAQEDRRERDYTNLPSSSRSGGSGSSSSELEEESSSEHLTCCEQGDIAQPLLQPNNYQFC
Method: The lysate was then transferred to total CSF-1R antibody coated 96-well plates that had already been blocked with 3% Blocker A from Mesoscale discovery (MSD) for 2 hours and washed afterwards. Lysates were incubated overnight at 4° C. and the plates were then washed 4× with MSD Tris Wash Buffer. […] The plates were read on the Sector 6000 instrument (MSD). Raw data was imported in Abase and EC50s calculated with XL-fit data analysis software.

[3] = target: T2, cytoplasmic domain of the human CSF-1R (Homo sapiens, UniProt P07333); experiment: In vitro kinase assay for colony stimulating factor-1 receptor (AlphaScreen); assay type: biochemical; settings: tested at about 1 μM, read-out: CSF-1R percent inhibition
T2 construct: Recombinant protein corresponding to the cytoplasmic domain of the human CSF-1R; purchased Invitrogen Corporation, Carlsbad, Calif; PV3249
T2 sequence (P07333 539-972 limits assumed): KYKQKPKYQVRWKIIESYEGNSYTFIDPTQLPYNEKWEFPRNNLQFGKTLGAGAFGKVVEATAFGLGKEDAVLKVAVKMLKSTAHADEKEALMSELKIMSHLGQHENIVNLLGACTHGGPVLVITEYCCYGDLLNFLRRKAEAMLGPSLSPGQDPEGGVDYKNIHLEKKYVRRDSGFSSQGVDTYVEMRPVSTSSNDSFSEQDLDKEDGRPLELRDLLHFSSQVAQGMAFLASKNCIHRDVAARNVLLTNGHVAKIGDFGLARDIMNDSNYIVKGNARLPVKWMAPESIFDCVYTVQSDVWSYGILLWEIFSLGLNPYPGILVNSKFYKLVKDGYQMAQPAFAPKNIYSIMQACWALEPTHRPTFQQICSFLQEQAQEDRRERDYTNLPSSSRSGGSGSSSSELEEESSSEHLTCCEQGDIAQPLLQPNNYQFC
Procedure, shortened: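 AlphaScreen read-out (PT66 anti-pTyr acceptor beads, streptavidin donor beads, overnight incubation) measured phosphorylated peptide product. The product was formed by the human CSF-1R cytoplasmic domain at 4 nM with 1 µM ATP in Mg2+/Mn2+ HEPES buffer, pH 7.5. Compound dilution series were 3-fold, starting at 25 µM.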

kinase domain of cKIT = target: T3, kinase domain of cKIT (Homo sapiens, UniProt P10721); experiment: Inhibition of cKIT kinase signaling in an in vitro biochemical assay (alphascreen); settings: tested at about 1 μM, read-out: cKit percent inhibition
T3 construct: The kinase domain of cKIT was assayed in 50 mM Hepes; purchased Upstate 14-559
T3 sequence (P10721 589-937 limits assumed): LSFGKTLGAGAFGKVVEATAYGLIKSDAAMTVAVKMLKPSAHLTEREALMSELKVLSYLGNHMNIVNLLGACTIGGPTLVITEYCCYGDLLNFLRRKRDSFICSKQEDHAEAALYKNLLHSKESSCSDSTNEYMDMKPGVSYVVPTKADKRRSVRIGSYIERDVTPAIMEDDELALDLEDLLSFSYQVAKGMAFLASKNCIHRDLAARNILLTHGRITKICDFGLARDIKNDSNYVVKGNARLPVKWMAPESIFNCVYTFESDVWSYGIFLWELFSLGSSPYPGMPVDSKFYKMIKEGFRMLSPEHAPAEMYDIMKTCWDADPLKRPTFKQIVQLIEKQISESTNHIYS

kinase domain of PDGFRβ = target: T4, kinase domain of PDGFRβ (Homo sapiens, UniProt P09619); experiment: Inhibition of PDGFRb kinase signaling in an in vitro biochemical assay (alphascreen); settings: tested at about 1 μM, read-out: PDGFRβ percent inhibition
T4 construct: The kinase domain of PDGFRβ was assayed in 50 mM Hepes; purchased Invitrogen P3082
T4 sequence (P09619 600-962 limits assumed): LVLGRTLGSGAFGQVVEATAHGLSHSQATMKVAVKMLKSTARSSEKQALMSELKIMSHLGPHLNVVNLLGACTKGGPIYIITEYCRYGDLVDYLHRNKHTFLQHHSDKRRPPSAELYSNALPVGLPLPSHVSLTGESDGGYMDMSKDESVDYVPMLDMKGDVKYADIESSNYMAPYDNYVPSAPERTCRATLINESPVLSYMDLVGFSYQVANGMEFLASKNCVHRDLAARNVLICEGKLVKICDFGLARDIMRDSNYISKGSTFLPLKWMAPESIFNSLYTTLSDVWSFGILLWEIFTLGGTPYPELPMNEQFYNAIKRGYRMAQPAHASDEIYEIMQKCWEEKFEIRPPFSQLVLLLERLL

Row | Structure (SMILES) | inhibition at 1 µM ([2]; HEK293H cells) [%] | inhibition at 1 µM [3] [%] | inhibition at 1 µM (kinase domain of cKIT) [%] | inhibition at 1 µM (kinase domain of PDGFRβ) [%] | inhibition at 1 µM ([2]; compounds of Table 3) [%] | inhibition at 1 µM ([3]; compounds of Table 3) [%] | inhibition at 1 µM (kinase domain of cKIT; compounds of Table 3) [%] | inhibition at 1 µM (kinase domain of PDGFRβ; compounds of Table 3) [%] | inhibition at 1 µM ([1]; compounds of Table 3) [%] | inhibition at 1 µM ([1]; MNFS60 cells) [%] | also measured
1 | CC(C)CONC(=O)c1cc(Oc2ccc3nc(NCC4CCCCC4)sc3c2)ccn1 [Example 380, 4-(2-(cyclohexylmethylamino)benzo[d]thiazol-6-yloxy)-N-isobutoxypicolinamide] | 94 | 100 | 53 | 49 |  |  |  |  |  |  | inhibition at 1 µM ([1]; MCSF dependent MNFS60 cells): 79%
2 | CN(C)c1ncc(-c2cc(Oc3ccc4nc(N[C@@H]5CCCC[C@H]5O)sc4c3)ccn2)cn1 [Example 286, (1R,2R)-2-(6-(2-(2-(dimethylamino)pyrimidin-5-yl)pyridin-4-yloxy)benzo[d]thiazol-2-ylamino)cyclohexanol] |  |  |  |  | 94 | 100 | 23 | 0 | 71 |  | 
3 | CNC(=O)c1cc(Oc2ccc3nc(N[C@H]4CCCC[C@@H]4O)oc3c2)ccn1 [Compound 52, 4-[2-((1S,2S)-2-Hydroxy-cyclohexylamino)-benzooxazol-6-yloxy]-pyridine-2-carboxylic acid methylamide] | 71 | 100 | 12 | 50 |  |  |  |  |  | 56 | 
4 | CCCn1cc(-c2cc(Oc3ccc4nc(N[C@@H]5CCCC[C@H]5O)sc4c3)ccn2)cn1 [Example 281, (1R,2R)-2-(6-(2-(1-propyl-1H-pyrazol-4-yl)pyridin-4-yloxy)benzo[d]thiazol-2-ylamino)cyclohexanol] |  |  |  |  | 96 | 100 | 22 | 36 | 100 |  | 
5 | Cc1c[nH]c(-c2cc(Oc3ccc4nc(N[C@@H](C)C5CCCCC5)sc4c3)ccn2)n1 [Example 268, (S)-N-(1-cyclohexylethyl)-6-(2-(4-methyl-1H-imidazol-2-yl)pyridin-4-yloxy)benzo[d]thiazol-2-amine] |  |  |  |  | 87 | 100 | 25 | 29 | 84 |  | 
6 | O[C@@H]1CCCC[C@H]1Nc1nc2ccc(Oc3ccnc(-c4cccc(CN5CCOCC5)c4)c3)cc2s1 [Cmpd 166, (1R,2R)-2-(6-(2-(3-(morpholinomethyl)phenyl)pyridin-4-yloxy)benzo[d]thiazol-2-ylamino)cyclohexanol] |  |  |  |  | 78 | 100 | 13 | 0 | 49 |  | 
7 | N#Cc1ccc2c(Oc3ccc4nc(N[C@@H]5CCCC[C@H]5O)sc4c3)ccnc2c1 [Example 222, 4-(2-((1R,2R)-2-hydroxycyclohexylamino)benzo[d]thiazol-6-yloxy)quinoline-7-carbonitrile] |  |  |  |  | 68 | 100 | 52 | 69 | 91 |  | 
8 | CNC(=O)c1cc(Oc2ccc3nc(N[C@H]4CCCN(C(=O)C5CCCC5)C4)sc3c2)ccn1 [Example 335, (S)-4-(2-(1-(cyclopentanecarbonyl)piper-idin-3-ylamino)benzo[d]thiazol-6-yloxy)-N-methylpicolinamide] | 50 | 100 | 21 | 0 |  |  |  |  |  |  | inhibition at 1 µM ([1]; MCSF dependent MNFS60 cells): 57%
9 | CNC(=O)c1cc(Oc2ccc3nc(NCc4ccccc4N4CCOCC4)oc3c2)ccn1 [Compound 88, 4-[2-(2-Morpholin-4-yl-benzylamino)-benzooxazol-6-yloxy]-pyridine-2-carboxylic acid methylamide] | 96 | 100 | 98 |  |  |  |  |  |  | 100 | 
10 | CCc1nc(-c2cc(Oc3ccc4nc(N[C@@H](C)C5CCCCC5)sc4c3)ccn2)[nH]c1C [Example 270, (S)-N-(1-cyclohexylethyl)-6-(2-(4-ethyl-5-methyl-1H-imidazol-2-yl)pyridin-4-yloxy)benzo[d]thiazol-2-amine] |  |  |  |  | 74 | 98 | 21 | 11 | 50 |  | 
11 | CNC(=O)c1cc(Oc2ccc3nc(Nc4ccccc4CCN4CCCCC4)oc3c2)ccn1 [Compound 44, 4-{2-[2-(2-Piperidin-1-yl-ethyl)-phenylamino]-benzooxazol-6-yloxy}-pyridine-2-carboxylic acid methylamide] |  | 37 |  | 15 | 99 | 100 | 87 | 98 | 100 |  | inhibition at 1 µM ([1]; compounds of Table 4): 94%; inhibition at 1 µM ([2]; compounds of Table 4): 53%; inhibition at 1 µM ([3]; compounds of Table 4): 100%; inhibition at 1 µM (kinase domain of cKIT; compounds of Table 4): 45%; inhibition at 1 µM (kinase domain of PDGFRβ; compounds of Table 4): 24%
12 | CNC(=O)c1cc(Oc2ccc3nc(N[C@H](C)c4cccc5ccccc45)oc3c2)ccn1 [Compound 18, 4-[2-((R)-1-Naphthalen-1-yl-ethylamino)-benzooxazol-6-yloxy]-pyridine-2-carboxylic acid methylamide] | 74 | 100 |  | 35 |  |  |  |  |  | 91 | 

Second part, led by results:

Row | inhibition at 1 µM ([2]; HEK293H cells) [%] | inhibition at 1 µM [3] [%] | inhibition at 1 µM (kinase domain of cKIT) [%] | inhibition at 1 µM (kinase domain of PDGFRβ) [%] | inhibition at 1 µM ([2]; compounds of Table 3) [%] | inhibition at 1 µM ([3]; compounds of Table 3) [%] | inhibition at 1 µM (kinase domain of cKIT; compounds of Table 3) [%] | inhibition at 1 µM (kinase domain of PDGFRβ; compounds of Table 3) [%] | Structure (SMILES) | inhibition at 1 µM ([1]; compounds of Table 3) [%] | inhibition at 1 µM ([1]; MNFS60 cells) [%] | also measured
13 | 98 | 99 | 96 | 55 |  |  |  |  | CNC(=O)c1cc(Oc2ccc3nc(N[C@H](C)c4ccccc4)sc3c2)ccn1 [Compound 131, 4-[2-((R)-1-Phenyl-ethylamino)-benzothiazol-6-yloxy]-pyridine-2-carboxylic acid methylamide] |  | 100 | 
14 | 95 | 100 | 70 | 12 |  |  |  |  | CNC(=O)c1cc(Oc2ccc3nc(NCCc4ccccc4OC)sc3c2)ccn1 [Example 317, 4-(2-(2-methoxyphenylethylamino)benzo[d]thiazol-6-yloxy)-N-methylpicolinamide] |  |  | inhibition at 1 µM ([1]; MCSF dependent MNFS60 cells): 50%
15 | 94 | 100 | 85 | 10 |  |  |  |  | CNC(=O)c1cc(Oc2ccc3nc(NCc4ccccc4OC)oc3c2)ccn1 [Compound 17, 4-[2-(2-Methoxy-benzylamino)-benzooxazol-6-yloxy]-pyridine-2-carboxylic acid methylamide] |  | 81 | 
16 | 98 | 99 | 79 |  |  |  |  |  | CNC(=O)c1cc(Oc2ccc3nc(NCc4ccccc4N(C)C)oc3c2)ccn1 [Compound 85, 4-[2-(2-Dimethylamino-benzylamino)-benzooxazol-6-yloxy]-pyridine-2-carboxylic acid methylamide] |  | 100 | 
17 | 97 | 99 | 93 |  |  |  |  |  | CNC(=O)c1cc(Oc2ccc3nc(NCc4cccc(OC)c4OC)oc3c2)ccn1 [Compound 91, 4-[2-(2,3-Dimethoxy-benzyl-amino)-benzooxazol-6-yloxy]-pyridine-2-carboxylic acid methylamide] |  | 87 | 
18 | 79 | 100 | 18 |  |  |  |  |  | CNC(=O)c1cc(Oc2ccc3nc(N[C@H](C)c4ccccc4OC)oc3c2)ccn1 [Compound 31, 4-{2-[(R)-1-(2-Methoxy-phenyl)-ethylamino]-benzooxazol-6-yloxy}-pyridine-2-carboxylic acid methylamide] |  | 57 | 
